Test system: patients with persistent moderate to severe atopic dermatitis inadequately controlled by TCS
Test: Clinical Study I (phase II, lebrikizumab + TCS vs placebo + TCS): efficacy outcomes
Assay type: in vivo, human
Conditions: for Mean % Change in % BSA Affected / Mean % Change in EASI / Mean % Change in Pruritus VAS / Mean % Change in SCORAD / Mean % Change in Sleep VAS / Mean Absolute Change in IGA: screening to baseline (2-week TCS run-in, before study drug)
Description: Clinical Study I was a phase II, randomized, double-blind, placebo-controlled study to evaluate the safety and efficacy of lebrikizumab in patients (age 18-75) with persistent moderate to severe atopic dermatitis that is inadequately controlled by topical corticosteroids (TCS). In this Study, lebrikizumab was tested in combination with TCS.
The inclusion criteria included the following: age 18 to 75 years; AD diagnosed by the Hanifin/Rajka criteria and that had been present for at least 1 year at screening; moderate to severe AD as graded by the Rajka/Langeland criteria at screening; history of inadequate response to a 1 month (within the 3 months prior to the screening visit) treatment regimen of at least daily TCS and regular emollient for treatment of AD; EASI score 14 at screening and end of the run-in period (Visit 3), IGA score 3 (5-point scale) at screening and end of the run-in period (Visit 3); AD involvement of 10% body surface area (BSA) at screening; and Pruritus VAS score (measured as part of the SCORAD) of 3 at screening.
Run-in Period. Following the screening visit, eligible patients entered a 2-week run-in period (Days −14 to −1) during which a protocol-specified topical therapy regimen was initiated. On the first day of the run-in period (Day −14) patients received TCS for use throughout the run-in period. Patients were required to apply the following topical therapy regimen daily: emollient to all xerotic skin surfaces, at least once daily; TCS cream consisting of medium potency TCS (triamcinolone acetonide 0.1%), two times per day, only to all active skin lesions.
Treatment Period. […] The plan was to randomize approximately 200 patients (1:1:1:1) to one of the following four treatment groups (see FIG. 1): (1) Group 1: lebrikizumab 250 mg administered subcutaneously (SC) single dose (Day 1) followed by 2 placebo doses (at Week 4 and at Week 8) for a total of 3 doses+TCS cream; (2) Group 2: lebrikizumab 125 mg SC single dose (Day 1) followed by 2 placebo doses (Week 4 and Week 8) for a total of 3 doses+TCS cream; (3) Group 3: lebrikizumab 125 mg SC every 4 weeks (Q4W) for a total of 3 doses+TCS cream; and (4) Group 4: placebo SC Q4W for a total of 3 doses+TCS cream. Three active doses were included to characterize both exposure-response relationships and dosing frequency requirements.
Patients randomized to these four study treatment groups received study drug (lebrikizumab or placebo SC) in combination with TCS. Throughout the 12-week treatment period these patients continued to apply emollient at least once daily and triamcinolone acetonide 0.1% cream as described in the run-in period (two times per day to all active skin lesions on the body). […] Patients recorded their use of topical creams and responded to PRO-related questions using a hand held eDiary throughout the treatment period. At each study visit the patient was required to bring their TCS containers to the study site to be weighed.
Efficacy Outcome Measures. The primary efficacy outcome measure was the percentage of patients achieving EASI-50 (a 50% reduction in EASI score from baseline) at Week 12. […]

[1] = 125 mg Q4W + TCS BID (n = 51), Week 12
[2] = 125 mg Q4W + TCS BID (n = 51), Week 12, listed as Lebri
[3] = 125 mg once every four weeks + TCS, Week 12, post hoc analysis
[4] = 125 mg single dose + TCS BID (n = 52), Week 12
[5] = 250 mg single dose + TCS BID (n = 53), Week 12

## lebrikizumab: monoclonal humanized anti-IL-13 IgG4 antibody; heavy chain SEQ ID NO: 11, light chain SEQ ID NO: 12; formulated at 125 mg/mL in prefilled syringe
[1]
  % Patients achieving EASI-50: 82.4%
  % Patients achieving EASI-50, placebo-corrected changes: 20.1%
  % Patients achieving EASI-75: 54.9%
  % Patients achieving EASI-75, placebo-corrected changes: 20.9%
  % Patients achieving IGA 0/1: (33.3) %
  % Patients achieving IGA 0/1, placebo-corrected change: 14.5%
  % Patients achieving SCORAD-50: 51.0%
  % Patients achieving SCORAD-50, placebo-corrected change: 24.6%
  % Patients achieving SCORAD-75: (21.6) %
  % change from baseline in AD Specific health-related QoL - ADIQ, mean: −54.3%
  % change from baseline in ADIQ, placebo-corrected change: −25.3%
  % change from baseline in Pruritus VAS (from SCORAD), mean: −40.71%
  % change from baseline in Pruritus VAS (from SCORAD), placebo-corrected change: −13.7%
  % change from baseline in Sleep Loss VAS (from SCORAD), mean: −53.6%
  % change from baseline in Sleep Loss VAS (from SCORAD), placebo-corrected change: −31.0%
  DLQI, % change from baseline, adjusted mean: −43.12%
  DLQI, % change from baseline, Δ vs placebo: −9.55%
  SCORAD score % change from baseline, adjusted mean: −53.5%
  SCORAD score % change from baseline, Δ vs placebo: −18.0%
  Total % BSA affected, % change from baseline, adjusted mean: −57.7%
  Total % BSA affected, % change from baseline, Δ vs placebo: −10.3%
[2]
  % Patients achieving EASI-50: (82.4) %
  % Patients achieving EASI-75: (54.9) %
  % Patients achieving SCORAD-50: (51.0) %
125 mg Q4W + TCS, Week 12
  reduction in BSA affected: 57.7%
125 mg Q4W + TCS, Week 20
  Change from baseline Pruritus VAS, mean % change: −35.23%
  Change from baseline Pruritus VAS, placebo-corrected differences: −13.76%
  Change from baseline in EASI, mean % change: −71.1%
  Change from baseline in EASI, placebo-corrected differences: −17.08%
  Patients maintaining EASI-50 response at Weeks 12 and 20, %: (90.5) %
  Patients maintaining EASI-50 response at Weeks 12 and 20, placebo-corrected differences: 17.75%
  Patients maintaining EASI-75 response at Weeks 12 and 20, %: (75.0) %
  Patients maintaining EASI-75 response at Weeks 12 and 20, placebo-corrected differences: 8.33%
  Patients maintaining IGA 0/1 response at Weeks 12 and 20, %: (70.6) %
  Patients maintaining IGA 0/1 response at Weeks 12 and 20, placebo-corrected differences: 10.59%
  Patients maintaining SCORAD-50 response at Weeks 12 and 20, %: (50.0) %
  Patients maintaining SCORAD-50 response at Weeks 12 and 20, placebo-corrected differences: −28.60%
125 mg SD + TCS, Week 20
  Change from baseline Pruritus VAS, mean % change: −27.59%
  Change from baseline Pruritus VAS, placebo-corrected differences: −6.13%
  Change from baseline in EASI, mean % change: −62.1%
  Change from baseline in EASI, placebo-corrected differences: −8.08%
  Patients maintaining EASI-50 response at Weeks 12 and 20, %: (80.6) %
  Patients maintaining EASI-50 response at Weeks 12 and 20, placebo-corrected differences: 7.83%
  Patients maintaining EASI-75 response at Weeks 12 and 20, %: (45.0) %
  Patients maintaining EASI-75 response at Weeks 12 and 20, placebo-corrected differences: −21.70%
  Patients maintaining IGA 0/1 response at Weeks 12 and 20, %: (54.5) %
  Patients maintaining IGA 0/1 response at Weeks 12 and 20, placebo-corrected differences: −5.45%
  Patients maintaining SCORAD-50 response at Weeks 12 and 20, %: (61.1) %
  Patients maintaining SCORAD-50 response at Weeks 12 and 20, placebo-corrected differences: −17.50%
[3]
  ADIQ reduction from screening: 64.7%
  Pruritus VAS reduction from screening: 55.2%
  Sleep Loss VAS reduction from screening: 61.5%
125 mg once every four weeks for 12 weeks + TCS, P=0.025
  placebo corrected change in EASI (difference between lebrikizumab treatment and placebo): 17.4%
125 mg once every four weeks for 12 weeks + TCS, modified intention-to-treat population
  % change (decrease) from baseline in EASI: 70.5%
[4]
  % Patients achieving EASI-50: (69.2) %
  % Patients achieving EASI-50, placebo-corrected changes: 7.0%
  % Patients achieving EASI-75: (38.5) %
  % Patients achieving EASI-75, placebo-corrected changes: 4.5%
  % Patients achieving IGA 0/1: (21.2) %
  % Patients achieving IGA 0/1, placebo-corrected change: 2.3%
  % Patients achieving SCORAD-50: (34.6) %
  % Patients achieving SCORAD-50, placebo-corrected change: 8.2%
  % Patients achieving SCORAD-75: (13.5) %
  % change from baseline in AD Specific health-related QoL - ADIQ, mean: −33.9%
  % change from baseline in ADIQ, placebo-corrected change: −4.9%
  % change from baseline in Pruritus VAS (from SCORAD), mean: −34.92%
  % change from baseline in Pruritus VAS (from SCORAD), placebo-corrected change: −7.38%
  % change from baseline in Sleep Loss VAS (from SCORAD), mean: −53.1%
  % change from baseline in Sleep Loss VAS (from SCORAD), placebo-corrected change: −30.6%
  DLQI, % change from baseline, adjusted mean: −34.33%
  DLQI, % change from baseline, Δ vs placebo: −0.76%
  SCORAD score % change from baseline, adjusted mean: −38.7%
  SCORAD score % change from baseline, Δ vs placebo: −3.3%
  Total % BSA affected, % change from baseline, adjusted mean: −45.2%
  Total % BSA affected, % change from baseline, Δ vs placebo: 2.2%
250 mg SD + TCS, Week 20
  Change from baseline Pruritus VAS, mean % change: −30.25%
  Change from baseline Pruritus VAS, placebo-corrected differences: −8.79%
  Change from baseline in EASI, mean % change: −55.9%
  Change from baseline in EASI, placebo-corrected differences: −1.88%
  Change from baseline in the % BSA affected, mean % change: −46.4%
  Change from baseline in the % BSA affected, placebo-corrected differences: 5.56%
  Patients maintaining EASI-50 response at Weeks 12 and 20, %: (78.4) %
  Patients maintaining EASI-50 response at Weeks 12 and 20, placebo-corrected differences: 5.65%
  Patients maintaining EASI-75 response at Weeks 12 and 20, %: (61.5) %
  Patients maintaining EASI-75 response at Weeks 12 and 20, placebo-corrected differences: −5.13%
  Patients maintaining IGA 0/1 response at Weeks 12 and 20, %: (60.0) %
  Patients maintaining IGA 0/1 response at Weeks 12 and 20, placebo-corrected differences: 0%
  Patients maintaining SCORAD-50 response at Weeks 12 and 20, %: (64.0) %
  Patients maintaining SCORAD-50 response at Weeks 12 and 20, placebo-corrected differences: −14.60%
[5]
  % Patients achieving EASI-50: (69.8) %
  % Patients achieving EASI-50, placebo-corrected changes: 7.6%
  % Patients achieving EASI-75: (49.1) %
  % Patients achieving EASI-75, placebo-corrected changes: 15.1%
  % Patients achieving IGA 0/1: (28.3) %
  % Patients achieving IGA 0/1, placebo-corrected change: 9.4%
  % Patients achieving SCORAD-50: 47.2%
  % Patients achieving SCORAD-50, placebo-corrected change: 20.8%
  % Patients achieving SCORAD-75: (11.3) %
  % change from baseline in AD Specific health-related QoL - ADIQ, mean: −30.8%
  % change from baseline in ADIQ, placebo-corrected change: −1.8%
  % change from baseline in Pruritus VAS (from SCORAD), mean: −32.82%
  % change from baseline in Pruritus VAS (from SCORAD), placebo-corrected change: −5.28%
  % change from baseline in Sleep Loss VAS (from SCORAD), mean: −47.2%
  % change from baseline in Sleep Loss VAS (from SCORAD), placebo-corrected change: −24.6%
  DLQI, % change from baseline, adjusted mean: −40.67%
  DLQI, % change from baseline, Δ vs placebo: −7.09%
  SCORAD score % change from baseline, adjusted mean: −42.6%
  SCORAD score % change from baseline, Δ vs placebo: −7.2%
  Total % BSA affected, % change from baseline, adjusted mean: −38.6%
  Total % BSA affected, % change from baseline, Δ vs placebo: 8.8%
250 mg single dose + TCS BID (n = 53), Week 12, listed as Lebri
  % Patients achieving SCORAD-50: (47.2) %
125 mg Q4W group (n = 51)
  Mean % Change in % BSA Affected: −9.3%
  Mean % Change in EASI: −9.1%
  Mean % Change in Pruritus VAS: −15.2%
  Mean % Change in SCORAD: −7.7%
  Mean % Change in Sleep VAS: −12.9%
  Mean Absolute Change in IGA: −0.14
125 mg SD group (n = 52)
  Mean % Change in % BSA Affected: −17.1%
  Mean % Change in EASI: −14.3%
  Mean % Change in Pruritus VAS: −23.8%
  Mean % Change in SCORAD: −12.2%
  Mean % Change in Sleep VAS: −29.0%
  Mean Absolute Change in IGA: −0.21
250 mg SD group (n = 53)
  Mean % Change in % BSA Affected: −4.3%
  Mean % Change in EASI: −10.2%
  Mean % Change in Pruritus VAS: −15.5%
  Mean % Change in SCORAD: −9.9%
  Mean % Change in Sleep VAS: −8.1%
  Mean Absolute Change in IGA: −0.17

Source: patent publication US12692302B2, “Uses of IL-13 antagonists for treating atopic dermatitis” (Genentech, Inc., priority 2016, dated 2026)
